Results reported in publication PMC5218480 (PLoS ONE, 2017).

Test system: MV-4-11 cells
Assay: Gene expression microarray analysis (Affymetrix PrimeView) and GSEA
Type: cell-based, human
Design: RFU PODN (11730768_x_at) / Fold change /veh PODN (11730768_x_at) / RFU LINC00158 (11744669_a_at) / Fold change /veh LINC00158 (11744669_a_at) / RFU DUSP10 (11751237_a_at) / Fold change /veh DUSP10 (11751237_a_at) / RFU ID3 (11757404_x_at) / Fold change /veh ID3 (11757404_x_at) / RFU PLEKHG5 (11737974_s_at) / Fold change /veh PLEKHG5 (11737974_s_at) / RFU LRRC4B (11730491_at) / Fold change /veh LRRC4B (11730491_at) / RFU GIMAP4 (11747438_a_at) / Fold change /veh GIMAP4 (11747438_a_at) / RFU KRT8 (11758183_x_at) / Fold change /veh KRT8 (11758183_x_at) / RFU CNN1 (11734310_a_at) / Fold change /veh CNN1 (11734310_a_at) / RFU VPS37D (11726825_at) / Fold change /veh VPS37D (11726825_at) / RFU C10orf10 (11716522_x_at) / Fold change /veh C10orf10 (11716522_x_at) / RFU KIR2DL2 /// KIR2DL4 /// KIR2DL5A /// KIR2DL5B /// KIR2DS1 /// KIR2DS2 /// KIR2DS3 /// KIR2DS4 /// KIR3DL3 /// KIR3DL3 /// KIR3DS1 (11738374_at) / Fold change /veh KIR2DL2 /// KIR2DL4 /// KIR2DL5A /// KIR2DL5B /// KIR2DS1 /// KIR2DS2 /// KIR2DS3 /// KIR2DS4 /// KIR3DL3 /// KIR3DL3 /// KIR3DS1 (11738374_at) / RFU C1QL1 (11718748_at) / Fold change /veh C1QL1 (11718748_at) / RFU TMPRSS4 (11747572_a_at) / Fold change /veh TMPRSS4 (11747572_a_at) / RFU HAMP (11756126_x_at) / Fold change /veh HAMP (11756126_x_at) / RFU RNFT2 (11725882_a_at) / Fold change /veh RNFT2 (11725882_a_at) / RFU NR4A2 (11747474_a_at) / Fold change /veh NR4A2 (11747474_a_at) / RFU ABCC12 (11746883_a_at) / Fold change /veh ABCC12 (11746883_a_at) / RFU TMEM136 (11760407_x_at) / Fold change /veh TMEM136 (11760407_x_at) / RFU CLDN22 /// WWC2 (11732394_at) / Fold change /veh CLDN22 /// WWC2 (11732394_at) / RFU HLA-DPB1 (11760878_x_at) / Fold change /veh HLA-DPB1 (11760878_x_at) / RFU SPINT1 (11716480_a_at) / Fold change /veh SPINT1 (11716480_a_at) / RFU GAP43 (11754022_s_at) / Fold change /veh GAP43 (11754022_s_at) / RFU A4GNT (11735810_at) / Fold change /veh A4GNT (11735810_at) / RFU PRB3 (11715151_x_at) / Fold change /veh PRB3 (11715151_x_at) / RFU TUBB4B (11761932_at) / Fold change /veh TUBB4B (11761932_at) / RFU CAPN14 (11732068_a_at) / Fold change /veh CAPN14 (11732068_a_at) / RFU TMCC2 (11721928_a_at) / Fold change /veh TMCC2 (11721928_a_at) / RFU IRGQ (11745062_a_at) / Fold change /veh IRGQ (11745062_a_at) / RFU FAM174B (11720279_a_at) / Fold change /veh FAM174B (11720279_a_at) / RFU TMPRSS4 (11748680_a_at) / Fold change /veh TMPRSS4 (11748680_a_at) / RFU FAM212B (11763350_a_at) / Fold change /veh FAM212B (11763350_a_at) / RFU PLEKHG5 (11743358_a_at) / Fold change /veh PLEKHG5 (11743358_a_at) / RFU ZSCAN30 (11745921_a_at) / Fold change /veh ZSCAN30 (11745921_a_at) / RFU CMKLR1 (11741424_a_at) / Fold change /veh CMKLR1 (11741424_a_at) / RFU LOC101060620 /// MAPK8IP1 (11723275_at) / Fold change /veh LOC101060620 /// MAPK8IP1 (11723275_at) / RFU SPTSSB (11747773_x_at) / Fold change /veh SPTSSB (11747773_x_at) / RFU PRSS12 (11739890_at) / Fold change /veh PRSS12 (11739890_at) / RFU BIN1 (11741810_x_at) / Fold change /veh BIN1 (11741810_x_at) / RFU WNT11 (11732464_a_at) / Fold change /veh WNT11 (11732464_a_at) / RFU C10orf10 (11716521_a_at) / Fold change /veh C10orf10 (11716521_a_at) / RFU C5orf56 (11738089_at) / Fold change /veh C5orf56 (11738089_at) / RFU CYB561 (11721691_x_at) / Fold change /veh CYB561 (11721691_x_at) / RFU ANKRD19P (11752326_a_at) / Fold change /veh ANKRD19P (11752326_a_at) / RFU OR2T12 /// OR2T33 /// OR2T8 (11738714_s_at) / Fold change /veh OR2T12 /// OR2T33 /// OR2T8 (11738714_s_at) / RFU VCAN (11748164_a_at) / Fold change /veh VCAN (11748164_a_at) / RFU JSRP1 (11732532_at) / Fold change /veh JSRP1 (11732532_at) / RFU KRTAP10-11 (11738290_x_at) / Fold change /veh KRTAP10-11 (11738290_x_at) / RFU MYO3A (11730013_a_at) / Fold change /veh MYO3A (11730013_a_at) / RFU EBF3 (11725865_a_at) / Fold change /veh EBF3 (11725865_a_at) / RFU CAMK2N1 (11719241_x_at) / Fold change /veh CAMK2N1 (11719241_x_at) / RFU C5orf56 (11738088_a_at) / Fold change /veh C5orf56 (11738088_a_at) / RFU OLFML3 (11715873_a_at) / Fold change /veh OLFML3 (11715873_a_at) / RFU LOC100653217 /// NTM (11731650_a_at) / Fold change /veh LOC100653217 /// NTM (11731650_a_at) / RFU MAPK11 (11762145_a_at) / Fold change /veh MAPK11 (11762145_a_at) / RFU FIZ1 (11724087_x_at) / Fold change /veh FIZ1 (11724087_x_at) / RFU OASL (11726364_x_at) / Fold change /veh OASL (11726364_x_at) / RFU SOX15 (11748057_x_at) / Fold change /veh SOX15 (11748057_x_at) / RFU CD79A (11719716_a_at) / Fold change /veh CD79A (11719716_a_at) / RFU HIST1H1D (11736915_at) / Fold change /veh HIST1H1D (11736915_at) / RFU CASKIN2 (11723855_a_at) / Fold change /veh CASKIN2 (11723855_a_at) / RFU LOC730098 (11760151_x_at) / Fold change /veh LOC730098 (11760151_x_at) / RFU OR4N2 (11742367_at) / Fold change /veh OR4N2 (11742367_at) / RFU PRRT2 (11749266_a_at) / Fold change /veh PRRT2 (11749266_a_at) / RFU SNX32 (11753110_a_at) / Fold change /veh SNX32 (11753110_a_at) / RFU CDHR5 (11726645_a_at) / Fold change /veh CDHR5 (11726645_a_at) / RFU RCAN1 (11760418_a_at) / Fold change /veh RCAN1 (11760418_a_at) / RFU FAM167A (11723789_a_at) / Fold change /veh FAM167A (11723789_a_at) / RFU FAM26E (11764081_at) / Fold change /veh FAM26E (11764081_at) / RFU ISYNA1 (11749810_s_at) / Fold change /veh ISYNA1 (11749810_s_at) / RFU ACY1 (11761880_at) / Fold change /veh ACY1 (11761880_at) / RFU 11764098_at / Fold change /veh 11764098_at / RFU SAMD14 (11745864_x_at) / Fold change /veh SAMD14 (11745864_x_at) / RFU NPB (11741838_a_at) / Fold change /veh NPB (11741838_a_at) / RFU TMPRSS6 (11731388_a_at) / Fold change /veh TMPRSS6 (11731388_a_at) / RFU KRTAP10-2 (11738614_at) / Fold change /veh KRTAP10-2 (11738614_at) / RFU ARHGAP8 /// PRR5-ARHGAP8 (11727945_x_at) / Fold change /veh ARHGAP8 /// PRR5-ARHGAP8 (11727945_x_at) / RFU KRTAP5-7 /// NADSYN1 (11734609_at) / Fold change /veh KRTAP5-7 /// NADSYN1 (11734609_at) / RFU RASL12 (11751679_a_at) / Fold change /veh RASL12 (11751679_a_at) / RFU CDKN2B (11736163_a_at) / Fold change /veh CDKN2B (11736163_a_at) / RFU PRF1 (11729649_at) / Fold change /veh PRF1 (11729649_at) / RFU, ZNF638 /// ZNF638-IT1 / Fold change vs veh, ZNF638 /// ZNF638-IT1 / RFU, PANK3 / Fold change vs veh, PANK3 / RFU, SH3YL1 / Fold change vs veh, SH3YL1 / RFU, ZEB2 / Fold change vs veh, ZEB2 / RFU, NRIP1 / Fold change vs veh, NRIP1 / RFU, PTTG1IP / Fold change vs veh, PTTG1IP / RFU, CAPN2 / Fold change vs veh, CAPN2 / RFU, MED14 / Fold change vs veh, MED14 / RFU, SNORA58 / Fold change vs veh, SNORA58 / RFU, C1orf63 / Fold change vs veh, C1orf63 / RFU, LRRFIP1 / Fold change vs veh, LRRFIP1 / RFU, NDUFAF7 / Fold change vs veh, NDUFAF7 / RFU, SLC12A2 / Fold change vs veh, SLC12A2 / RFU, IBTK / Fold change vs veh, IBTK / RFU, ESF1 / Fold change vs veh, ESF1 / Fold change vs veh, TMEM50B / RFU, TAOK1 / Fold change vs veh, TAOK1 / RFU, ACBD3 / Fold change vs veh, ACBD3 / RFU, TMA16 / Fold change vs veh, TMA16 / RFU, RWDD3 / Fold change vs veh, RWDD3 / RFU, BCAT1 / Fold change vs veh, BCAT1 / RFU, EDEM3 / Fold change vs veh, EDEM3 / RFU, TMEM33 / Fold change vs veh, TMEM33 / RFU, WDR75 / Fold change vs veh, WDR75 / RFU, AHCTF1 / Fold change vs veh, AHCTF1 / RFU, TFRC / Fold change vs veh, TFRC / RFU, ZDHHC17 / Fold change vs veh, ZDHHC17 / RFU, NOM1 / Fold change vs veh, NOM1 / RFU, ARL8B / Fold change vs veh, ARL8B / RFU, ZBTB11 / Fold change vs veh, ZBTB11 / RFU, TAMM41 / Fold change vs veh, TAMM41 / RFU, KIAA1704 /// LOC100996395 / Fold change vs veh, KIAA1704 /// LOC100996395 / RFU, ING1 / Fold change vs veh, ING1 / RFU, TRMT61B / Fold change vs veh, TRMT61B / RFU, FUBP3 / Fold change vs veh, FUBP3 / RFU, TP53 / Fold change vs veh, TP53 / RFU, TNKS2 / Fold change vs veh, TNKS2 / RFU, ZFP14 / Fold change vs veh, ZFP14 / RFU, ACTR2 / Fold change vs veh, ACTR2 / RFU, PPP3R1 / Fold change vs veh, PPP3R1 / RFU, PIK3R1 / Fold change vs veh, PIK3R1 / RFU, HNRNPA1 / Fold change vs veh, HNRNPA1 / RFU, RNF170 / Fold change vs veh, RNF170 / RFU, ZNF28 / Fold change vs veh, ZNF28 / RFU, RNGTT / Fold change vs veh, RNGTT / RFU, OGT / Fold change vs veh, OGT / RFU, BRD1 / Fold change vs veh, BRD1 / RFU, MARS / Fold change vs veh, MARS / RFU, ZNF655 / Fold change vs veh, ZNF655 / RFU, FAHD1 / Fold change vs veh, FAHD1 / RFU, BDP1 / Fold change vs veh, BDP1 / RFU, LRRCC1 / Fold change vs veh, LRRCC1 / RFU, ARID1A / Fold change vs veh, ARID1A / RFU, ZNF146 / Fold change vs veh, ZNF146 / RFU, ZNF330 / Fold change vs veh, ZNF330 / RFU, GPN3 / Fold change vs veh, GPN3 / RFU, C9orf123 / Fold change vs veh, C9orf123 / RFU, N4BP2L2 / Fold change vs veh, N4BP2L2 / RFU, ARFIP1 / Fold change vs veh, ARFIP1 / RFU, FAM179B / Fold change vs veh, FAM179B / RFU, BCL10 / Fold change vs veh, BCL10 / RFU, UHRF1BP1L / Fold change vs veh, UHRF1BP1L / RFU, BET1 / Fold change vs veh, BET1 / RFU, CNOT2 / Fold change vs veh, CNOT2 / RFU, ZNF268 / Fold change vs veh, ZNF268 / Fold change vs veh, ZNF507 / RFU, DGCR2 / Fold change vs veh, DGCR2 / RFU, WDSUB1 / Fold change vs veh, WDSUB1 / Fold change vs veh, HSP90B1 /// MIR3652 / RFU, ADSS / Fold change vs veh, ADSS / RFU, GK / Fold change vs veh, GK / RFU, ZNF148 / Fold change vs veh, ZNF148 / RFU, TAF9 / Fold change vs veh, TAF9 / RFU, SLC1A5 / Fold change vs veh, SLC1A5 / RFU, SLMO2 / Fold change vs veh, SLMO2 / RFU, ABCC4 / Fold change vs veh, ABCC4 / RFU, LOC101060439 /// RAP1B / Fold change vs veh, LOC101060439 /// RAP1B / RFU, RFX7 / Fold change vs veh, RFX7 / RFU, GTPBP10 / Fold change vs veh, GTPBP10 / RFU, CNEP1R1 / Fold change vs veh, CNEP1R1 / RFU, BIVM-ERCC5 /// ERCC5 / Fold change vs veh, BIVM-ERCC5 /// ERCC5 / RFU, ILF3 / Fold change vs veh, ILF3 / RFU 11762660_at / Fold change /veh 11762660_at / RFU VCAN (11757783_s_at) / Fold change /veh VCAN (11757783_s_at) / RFU DDX43 (11728927_at) / Fold change /veh DDX43 (11728927_at) / RFU KRT8 (11758188_x_at) / Fold change /veh KRT8 (11758188_x_at) / RFU NKD1 (11759106_at) / Fold change /veh NKD1 (11759106_at) / RFU SRD5A1 (11742802_a_at) / Fold change /veh SRD5A1 (11742802_a_at) / RFU TPSAB1 /// TPSB2 (11721975_s_at) / Fold change /veh TPSAB1 /// TPSB2 (11721975_s_at) / RFU GSTM3 (11746129_a_at) / Fold change /veh GSTM3 (11746129_a_at) / RFU IL23R (11737362_x_at) / Fold change /veh IL23R (11737362_x_at) / RFU TMEM51 (11727254_a_at) / Fold change /veh TMEM51 (11727254_a_at) / RFU PIWIL2 (11732686_x_at) / Fold change /veh PIWIL2 (11732686_x_at) / RFU ORM1 (11744905_x_at) / Fold change /veh ORM1 (11744905_x_at) / RFU CCDC152 (11743942_at) / Fold change /veh CCDC152 (11743942_at) / RFU ECM1 (11717891_a_at) / Fold change /veh ECM1 (11717891_a_at) / RFU IL23R (11748794_a_at) / Fold change /veh IL23R (11748794_a_at) / RFU TNFAIP8L3 (11732012_x_at) / Fold change /veh TNFAIP8L3 (11732012_x_at) / RFU MBOAT4 (11741988_at) / Fold change /veh MBOAT4 (11741988_at) / RFU 11764193_at / Fold change /veh 11764193_at / RFU TMEM53 (11763286_at) / Fold change /veh TMEM53 (11763286_at) / RFU MAGEB2 (11727129_at) / Fold change /veh MAGEB2 (11727129_at) / RFU TMEM200A (11744735_a_at) / Fold change /veh TMEM200A (11744735_a_at) / RFU CCDC152 (11751479_a_at) / Fold change /veh CCDC152 (11751479_a_at) / RFU FAM211A (11726209_a_at) / Fold change /veh FAM211A (11726209_a_at) / RFU RGS16 (11746705_a_at) / Fold change /veh RGS16 (11746705_a_at) / RFU VCAN (11755009_s_at) / Fold change /veh VCAN (11755009_s_at) / RFU RHOB (11743442_s_at) / Fold change /veh RHOB (11743442_s_at) / RFU RGS16 (11720943_a_at) / Fold change /veh RGS16 (11720943_a_at) / RFU RGS16 (11720944_at) / Fold change /veh RGS16 (11720944_at) / RFU, VPS4B / Fold change vs veh, VPS4B / RFU, CREB1 / Fold change vs veh, CREB1 / RFU, DNAJC13 / Fold change vs veh, DNAJC13 / RFU, GNAQ / Fold change vs veh, GNAQ / RFU, CDK5R1 / Fold change vs veh, CDK5R1 / RFU, ZRANB3 / Fold change vs veh, ZRANB3 / RFU, CUL4A / Fold change vs veh, CUL4A / RFU, CCNY / Fold change vs veh, CCNY / RFU, UFL1 / Fold change vs veh, UFL1 / RFU, COG3 / Fold change vs veh, COG3 / RFU, DIAPH2 / Fold change vs veh, DIAPH2 / RFU, SKA2 / Fold change vs veh, SKA2 / RFU, AFF3 / Fold change vs veh, AFF3 / RFU, LMF1 / Fold change vs veh, LMF1 / RFU, IPO11 / Fold change vs veh, IPO11 / RFU, DFFB / Fold change vs veh, DFFB / RFU, FOXP1 / Fold change vs veh, FOXP1 / RFU, CARD8 / Fold change vs veh, CARD8 / RFU, STRN3 / Fold change vs veh, STRN3 / RFU, ADK / Fold change vs veh, ADK / RFU, RASSF2 / Fold change vs veh, RASSF2 / RFU, WIPF1 / Fold change vs veh, WIPF1 / RFU, LARP1B / Fold change vs veh, LARP1B / RFU, RASA1 / Fold change vs veh, RASA1 / RFU, RB1 / Fold change vs veh, RB1 / RFU, PPFIA1 / Fold change vs veh, PPFIA1 / RFU, MAT2A / Fold change vs veh, MAT2A / RFU, CCT5 / Fold change vs veh, CCT5 / RFU, WDR92 / Fold change vs veh, WDR92 / RFU, CUX1 / Fold change vs veh, CUX1 / RFU, TTC7A / Fold change vs veh, TTC7A / RFU, TMEM135 / Fold change vs veh, TMEM135 / RFU, DEPTOR / Fold change vs veh, DEPTOR / RFU, CPM / Fold change vs veh, CPM / RFU, DNAJB6 / Fold change vs veh, DNAJB6 / RFU, CACNA2D3 / Fold change vs veh, CACNA2D3 / RFU, DTX4 / Fold change vs veh, DTX4 / RFU, TFCP2 / Fold change vs veh, TFCP2 / RFU, GMCL1 /// GMCL1P1 / Fold change vs veh, GMCL1 /// GMCL1P1 / RFU, AEBP2 / Fold change vs veh, AEBP2 / RFU, SNHG1 /// SNORD22 /// SNORD25 /// SNORD26 /// SNORD27 /// SNORD28 /// SNORD29 /// SNORD31 / Fold change vs veh, SNHG1 /// SNORD22 /// SNORD25 /// SNORD26 /// SNORD27 /// SNORD28 /// SNORD29 /// SNORD31 / Fold change (Aza/veh), C12orf56 (ProbeSet 11735607_a_at) / Fold change (ACY-1035/veh), C12orf56 (ProbeSet 11735607_a_at) / Fold change (Aza/veh), FGFR1OP (ProbeSet 11751329_s_at) / Fold change (ACY-1035/veh), FGFR1OP (ProbeSet 11751329_s_at) / Fold change (Aza/veh), VPS36 (ProbeSet 11739960_a_at) / Fold change (ACY-1035/veh), VPS36 (ProbeSet 11739960_a_at) / RFU SYPL1 (11715823_x_at) / Fold change /veh SYPL1 (11715823_x_at) / RFU IGFBP7 (11715501_s_at) / Fold change /veh IGFBP7 (11715501_s_at) / RFU REEP3 (11722064_at) / Fold change /veh REEP3 (11722064_at) / RFU IGLL1 (11728026_x_at) / Fold change /veh IGLL1 (11728026_x_at): dose or concentration left out as unconfirmed
Details: ProbeSet 11724526_at; LIST B

Nc1ccc(-c2cccs2)cc1NC(=O)c1ccc2c(c1)cc(C1CC1)n2CCN1CCOCC1 [ACY-1035]
RFU, FAHD1: 149.86 RFU
